Tested on: Mycobacterium tuberculosis H37Rv (ATCC: 25177)
Assay: Anti-tubercular activity, colorimetric Resazurin Microplate Assay (REMA)
Assay type: cell-based
Conditions: 192 h, read-out: Anti-tubercular activity against Mycobacterium tuberculosis H37Rv (MIC)

Row | SMILES | MIC [µg/mL]
1 | CC(C)OC(=O)c1cc[n+](CC(=O)c2ccccc2)cc1.[Br-] [Compound 4a, 4-(Isopropoxycarbonyl)-1-(2-oxo-2-phenylethyl)pyridin-1-ium Bromide] | 0.5
2 | CC(C)OC(=O)c1cc[n+](CC(=O)c2ccc(F)cc2)cc1.[Br-] [Compound 4b, 1-(2-(4-Fluorophenyl)-2-oxoethyl)-4-(isopropoxycarbonyl)pyridin-1-ium bromide] | 1
